Data from article PMC9967700, “Metabolism-Guided Optimization of Tryptophanol-Derived Isoindolinone p53 Activators” (Pharmaceuticals, 2023).

Target: T1, wt p53 core domain (DNA Binding Domain; p53DBD; residues 94–312) (Homo sapiens, UniProt P04637)
T1 construct: residues 94–312; host or cells: E. coli BL21 (DE3)-[pLys-S]
Assay: Differential scanning fluorimetry (DSF) thermostability
Details: 13d 2.5 mM, MQ 2 mM; for Tm of the wt p53DBD: 5% DMSO, mean ± SD, three assays
Method: Expression of wt p53 core domain. The wt p53DBD was expressed in E. coli BL21 (DE3)-[pLys-S] in fusion with an N-terminal 21-residue tag containing the hexa-histidyl peptide (His6) and the thrombin recognition sequence, using the pET15b-based expression construct.
For protein expression 10 mL of an overnight (ON) culture was used to inoculate 1 L of LB medium supplemented with 1 mL of ampicillin 100 mg/mL and 1mL of zinc sulphate 100 mM. Culture medium was incubated at 37 °C, 140 rpm till an OD600nm of ~0.5. Protein expression was then induced by adding 0.5 mL of isopropyl β-D-1-thiogalactopyranoside (IPTG) 1M (Cfinal = 0.5 mM) and bacterial growth at 27 °C, 120 rpm ON. E. coli cells were pelleted by centrifugation for 10 min, 4000 rpm, at 4 °C. The cellular pellet was resuspended in 10 mL of Lysis buffer (Sodium phosphate 50 mM; NaCl 300 mM; glycerol 10%, pH 7.4) supplemented with 1mg/mL Lysozyme (Biochemica Applichem Panreac), 1 mM of phenylmethanesulfonyl fluoride (PMSF) (Merck), 5 µg of DNAse I (Panreac applichem) and 0.8% of Triton X-100 (Merck). After a first step of chemical lysis (30 min incubation, at 4 °C), cells were further disrupted by four cycles of sonication, at 4 °C, during 60 s at 50% duty free cycle on a Vibra Cell (Media Cibernetics). The lysate was subsequently cleared by centrifugation at 10,000 rpm, 40 min, at 4 °C and the supernatant containing the soluble proteins were collected.
Purification of human wt p53DBD and His6-tag removal. Immobilized Metal Affinity Chromatography (IMAC) was performed to purify the wt p53DBD using a nickel-nitrilotriacetic acid (Ni-NTA) agarose resin (QIAGEN). Briefly, 1 mL of Ni^2+ resin was pre-equilibrated using MilliQ water (3 × 1 mL) and Lysis buffer containing 10 mM imidazole (3 × 1 mL). The soluble fraction of cellular lysate was supplemented with 6.8 µL of β-mercaptoethanol and 33.2 µL of imidazole 3 M to obtain the final concentrations of […] and 10 mM, respectively. The lysate was added to the pre-equilibrated resin and protein binding was performed by incubation on an orbital shaker for one hour at 4 °C. The suspension was added to a 9 cm polypropylene conical column (Poly-Prep columns; BioRad) and protein purification was performed by gravity flow with an imidazole gradient consisting of three washing steps (2 × 5 mL of Lysis buffer, 20 mM imidazole; 2 × 5 mL of Lysis buffer, 50 mM imidazole; and 1 × 2.5 mL Lysis buffer, 75 mM imidazole) and an elution step with 5 × 500 µL of Lysis buffer, 250 mM imidazole. Protein eluted fractions were assessed by SDS-PAGE and Coomassie staining. Size exclusion chromatography was performed on the pooled protein eluted fractions, using an AKTA prime plus system (GE Healthcare) equipped with a UV detector (280 nm), a HiLoad 16/60, Superdex 200 prep grade column (GE Healthcare) and SEC buffer (25 mM potassium phosphate buffer, 150 mM NaCl, pH 7.5). The fractions corresponding to the wt p53DBD monomers were collected and treated with thrombin (8 units of thrombin/mg wt p53DBD). The thrombin cleavage was conducted for 18 h at rt at pH 7.4 in the assay buffer recommended by the supplier. Before and after digestion protein concentration was determined through Bradford method.
Thermostability of wt p53DBD core domain assessed by differential scanning fluorimetry (DSF). An amount of 5 μg of thrombin-cleaved wt p53DBD was incubated with testing compounds (2.5 mM) in 25 mM potassium phosphate buffer and 150 mM NaCl, pH 7.5 in a final volume of 50 µL containing 2 µL of 1 mM DTT or 1 mM TCEP to promote p53 core domain redox control, and Sypro Orange at 2.5x final concentration. The fluorescence was assessed on a C1000 Touch thermal cycler equipped with a CFX96 optical reaction module (BioRad) and the FRET channel (λexc 450–490 nm and λem 560–580 nm). Temperature was ramped from 20 to 90 °C with a rate of 0.2 °C/12 sec. The Tm values were calculated using Origin 8 Software. […]

T1 sequence (P04637 94-312): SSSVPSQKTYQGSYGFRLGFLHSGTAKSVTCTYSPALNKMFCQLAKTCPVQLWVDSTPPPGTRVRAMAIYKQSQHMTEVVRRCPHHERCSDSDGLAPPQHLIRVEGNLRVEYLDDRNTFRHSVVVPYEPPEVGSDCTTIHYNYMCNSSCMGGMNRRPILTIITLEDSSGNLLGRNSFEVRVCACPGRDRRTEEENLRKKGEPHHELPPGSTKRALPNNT

Compound: CCCn1c(Br)c(C[C@H]2CO[C@]3(c4ccccc4)c4ccccc4C(=O)N23)c2ccccc21 [Compound 13d, (3S, 9bR)-3-((2-bromo-1-propyl-1H-indol-3-yl)methyl)-9b-phenyl-2,3-dihydrooxazolo[2,3-a]isoindol-5(9bH)-one]
- ΔTm of the wt p53DBD (DTT 1 mM): did not increase the wt p53DBD Tm
- Tm of the wt p53DBD (DTT (1 mM)): 40.51 ± 0.09 °C
- ΔTm at 2500 µM (TCEP 1 mM): 10.4 °C
- ΔTm of the wt p53DBD (TCEP 1 mM): 10.4 °C
- Tm of the wt p53DBD (TCEP (1 mM)): 51.38 ± 0.38 °C
